Structures are written as SMILES. Where two headings read alike, the source gives them in different places.

The assay concerns HIV-1 (RF) in MT-2 cells. In words: HIV RNA assay: antiviral potency in HIV-1 (RF) infected MT-2 cells (reduction of HIV RNA level). Type of assay: cell-based. As for the experimental part: Plasmid pDAB 72 containing both gag and pol sequences of BH10 (bp 113-1816) cloned into PTZ 19R was prepared according to Erickson-Viitanen et al. AIDS Research and Human Retroviruses 1989, 5, 577. The plasmid was linearized with Bam HI prior to the generation of in vitro RNA transcripts using the Riboprobe Gemini system II kit (Promega) with T7 RNA polymerase. Synthesized RNA was purified by treatment with RNase free DNAse (Promega), phenol-chloroform extraction, and ethanol precipitation. RNA transcripts were dissolved in water, and stored at -70° C. The concentration of RNA was determined from the A260.
Biotinylated capture probes were purified by HPLC after synthesis on an Applied Biosystems (Foster City, Calif.) DNA synthesizer by addition of biotin to the 5' terminal end of the oligonucleotide, using the biotin-phosphoramidite reagent of Cocuzza, Tet. Lett. 1989, 30, 6287. […]
MT-2 and MT-4 cells were maintained in RPMI 1640 supplemented with 5% fetal calf serum (FCS) for MT-2 cells or 10% FCS for MT-4 cells, 2 mM L-glutamine and 50 μg/mL gentamycin, all from Gibco. […] Infectious titers of HIV-1(RF) stocks were 1-3×10^7 PFU (plaque forming units)/mL as measured by plaque assay on MT-2 cells (see below). […]

Turning to `Nc1cccc(CN2C(=O)N(Cc3ccc4[nH]ncc4c3)[C@H](Cc3ccccc3)[C@H](O)[C@@H](O)[C@H]2Cc2ccccc2)c1` [Example 1, (4R,5S,6S,7R)-hexahydro-1-[(indazol-5-yl)methyl]-5,6-dihydroxy-4,7-bis[phenylmethyl]-3-(3-aminophenyl)methyl-2H-1,3-diazapin-2-one], the IC90 (Human immunodeficiency virus 1, MT2, 72 h, 3 days culture at 37° C., read-out: IC90 (concentration of compound required to reduce the HIV RNA level by 90%)) was less than 50 nM.
Take `Nc1ccn([C@H]2CC[C@@H](CO)O2)c(=O)n1` [ddC, dideoxycytidine]: for the setting “Human immunodeficiency virus 1, MT2, ddC reference, dilutions of virus selected to give this IC90, read-out: IC90 (concentration of compound required to reduce the HIV RNA level by 90%)”, the IC90 was 0.2 µg/mL.

These data come from US6313110A, “Substituted 2H-1,3-diazapin-2-one useful as an HIV protease inhibitor” (priority 2000, dated 2001).
